Key:
[1] = tested on: spinal cord of apoaequorin-expressing mice; experiment: Intracellular calcium ion increase (aequorin luminescence), spinal cord; format: cell-based, mouse; conditions: peptide at final concentrations of 1 μmol/L and 5 μmol/L
Description: (§1) A hypothalamus, pituitary gland, kidney, heart, blood vessel, or a portion of brain tissue is collected from transgenic mice systemically expressing apoaequorin (WO02/010371) produced by introducing an apoaequorin gene expression vector into fertilized eggs. The obtained hypothalamus, pituitary gland, kidney, heart, blood vessel, or brain tissue is cut finely into pieces, suspended in a medium containing coelenterazine, and then incubated to incorporate coelenterazine into the cells to form aequorin (a complex of apoaequorin and coelenterazine). Since aequorin luminesces upon binding to intracellular calcium ions, the relative luminescence level in cells before and after addition of a medium containing the peptide or a pharmaceutically acceptable salt thereof is measured in a luminometer every second over time and is used as an indicator of intracellular calcium ion concentration. Increase in the relative luminescence level due to addition of the peptide or pharmaceutically acceptable salt thereof confirms that the peptide or pharmaceutically acceptable salt thereof has the activity to increase intracellular calcium ion concentration. […]

[2] = tested on: cardiac cells of the apoaequorin-expressing mice; experiment: Intracellular calcium ion increase (aequorin luminescence), heart; format: cell-based, mouse
Description: (§2) A hypothalamus, pituitary gland, kidney, heart, blood vessel, or a portion of brain tissue is collected from transgenic mice systemically expressing apoaequorin (WO02/010371) produced by introducing an apoaequorin gene expression vector into fertilized eggs. The obtained hypothalamus, pituitary gland, kidney, heart, blood vessel, or brain tissue is cut finely into pieces, suspended in a medium containing coelenterazine, and then incubated to incorporate coelenterazine into the cells to form aequorin (a complex of apoaequorin and coelenterazine). Since aequorin luminesces upon binding to intracellular calcium ions, the relative luminescence level in cells before and after addition of a medium containing the peptide or a pharmaceutically acceptable salt thereof is measured in a luminometer every second over time and is used as an indicator of intracellular calcium ion concentration. Increase in the relative luminescence level due to addition of the peptide or pharmaceutically acceptable salt thereof confirms that the peptide or pharmaceutically acceptable salt thereof has the activity to increase intracellular calcium ion concentration.
(§3) Whether Peptides 1 to 8 synthesized in Example 2 have the activity of increasing intracellular calcium ion concentration was investigated using the organs of transgenic mice introduced with the apoaequorin gene and systemically expressing apoaequorin (hereinafter referred to as apoaequorin-expressing mice). In apoaequorin-expressing mouse cells, light is emitted when apoaequorin binds to a calcium ion in the presence of the luminescent substrate coelenterazine and thus the intracellular calcium ion concentration can be monitored. Patent Document (WO02/010371) discloses the method for producing apoaequorin-expressing mice, method for evaluating biologically active substances that use biological samples derived from the mice, and experimental results of evaluating biologically active peptides using the mouse organs as shown below. […] Therefore, apoaequorin-expressing mice can be used in the evaluation of the physiological activities of novel peptides.
(§4) Apoaequorin-expressing mice were produced according to the method disclosed in Reference Example 4 of Patent Document (WO02/010371). The apoaequorin-expressing mice were sacrificed, individual organs including thymus, hypothalamus, spleen, bone, aorta, heart, kidney, adrenal gland, pancreas, pituitary gland, uterus, medulla oblongata, and spinal cord were removed; and each of the organs was cut into small cubes of approximately 1 to 2 mm^3. Next, in 5-mL tubes (Rohren-Tubes; manufactured by Sarstedt, No. 55.476), three portions of each of the prepared organs were added to 50 μL of a 10 μmol/L solution of coelenterazine (manufactured by Molecular Probes) dissolved in RPMI 1640 medium, and these were cultured at 37° C. for three hours. After culturing, RPMI 1640 medium was added, and then Peptides 1 to 5 dissolved in RPMI 1640 medium were added 25 seconds after the addition of RPMI 1640 until each peptide had final concentrations of 1 μmol/L and of 5 μmol/L, and the relative luminescence levels were measured every second immediately after the addition of RPMI 1640 medium by using a luminometer (AutoLumat LB953, manufactured by Berthold).

[3] = tested on: uterus of apoaequorin-expressing mice; experiment: Intracellular calcium ion increase (aequorin luminescence), uterus; format: cell-based, mouse; conditions: peptide at final concentrations of 1 μmol/L and 5 μmol/L
Description: as §1

[4] = tested on: hypothalamic cells of the apoaequorin-expressing mice; experiment: Intracellular calcium ion increase (aequorin luminescence), hypothalamus; format: cell-based, mouse
In short: (§5)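 Organ pieces (~1–2 mm^3) from mice transgenic for systemic apoaequorin loaded with 10 μmol/L coelenterazine in RPMI 1640 for 3 h at 37 °C. Peptide added 25 s after medium to final 1 or 5 μmol/L; relative luminescence read every second as an indicator of intracellular Ca2+ rise.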

[5] = tested on: kidney cells of the apoaequorin-expressing mice; experiment: Intracellular calcium ion increase (aequorin luminescence), kidney; format: cell-based, mouse
Description: as §2, §3, §4

[6] = tested on: pituitary cells of the apoaequorin-expressing mice; experiment: Intracellular calcium ion increase (aequorin luminescence), pituitary gland; format: cell-based, mouse
In short: as §5

[7] = tested on: medulla oblongata of apoaequorin-expressing mice; experiment: Intracellular calcium ion increase (aequorin luminescence), medulla oblongata; format: cell-based, mouse; conditions: peptide at final concentrations of 1 μmol/L and 5 μmol/L
Description: as §2, §3, §4

[8] = tested on: spleen of apoaequorin-expressing mice; experiment: Intracellular calcium ion increase (aequorin luminescence), spleen; format: cell-based, mouse; conditions: peptide at final concentrations of 1 μmol/L and 5 μmol/L
Description: as §2, §3
Apoaequorin-expressing mice were produced according to the method disclosed in Reference Example 4 of Patent Document (WO02/010371). […] After culturing, RPMI 1640 medium was added, and then Peptides 1 to 5 dissolved in RPMI 1640 medium were added 25 seconds after the addition of RPMI 1640 until each peptide had final concentrations of 1 μmol/L and of 5 μmol/L, and the relative luminescence levels were measured every second immediately after the addition of RPMI 1640 medium by using a luminometer (AutoLumat LB953, manufactured by Berthold).

male rats = conditions: direct administration to the PVN of male rats; Non-patent Document 7; cited from earlier work
[9] = tested on: rats fed with high-calorie diets; conditions: administered into the rat ventricle, Non-patent Document 6; cited from earlier work
[10] = tested on: adrenal glands of apoaequorin-expressing mice; conditions: final concentration of 1 μmol/L; reported in WO02/010371; cited from earlier work
[11] = tested on: blood vessels of apoaequorin-expressing mice; conditions: final concentration of 1 μmol/L; reported in WO02/010371; cited from earlier work
[12] = tested on: antiserum against ESPGPERVW peptide of human VGF; format: binding; conditions: 1, 10, and 100 pmol of the peptides
Description: Namely, to 100 μL of antiserum diluted 9×10^5 folds with RIA buffer, 100 μL of RIA buffer containing a fixed amount of [^125I]-labeled Peptide 1 (approximately 20000 cpm, 500-550 Bq, approximately 9 fmol in terms of peptide amount) and 100 μL of RIA buffer solutions each containing a sequentially diluted VGF-derived peptide were added, this was incubated at 4° C. for 40 hours, and the labeled Peptide 1 and VGF-derived peptide were competitively bound to the antibody in the antiserum. As controls, reactions that use RIA buffer instead of the antiserum to measure non-specific binding, and reactions that use RIA buffer instead of VGF-derived peptide solutions to measure the maximum binding level were carried out. Reactions for non-specific binding were performed in quadruplicates, and the other reactions were performed in duplicates, and for each of the reactants, the immune complex was precipitated as in the above-mentioned antibody titer measurements, and its radioactivity (cpm) was measured. The average radioactivity of non-specific binding reaction is defined as non-specific binding level N, the radioactivity value for each VGF-derived peptide addition reaction is defined as Y, and the radioactivity value of maximum binding reaction is defined as Z. The percentage ratio (B/B0) of antiserum specific binding level (B) with peptide addition to the maximum binding level (B0), was determined using the following formula.
B/B0(%)={(Y−N)/(Z−N)}×100
Accordingly, the amount of peptide that achieves 50% B/B0, more specifically, the amount of peptide that yields 50% inhibition of the maximum binding level, was used as an indicator of the peptide binding activity to the antiserum.

[13] = tested on: uterus of apoaequorin-expressing mice; conditions: final concentration of 1 μmol/L; reported in WO02/010371; cited from earlier work
[14] = 5 μmol/L peptide, added at 25 seconds
[15] = peptide at final concentrations of 1 μmol/L and 5 μmol/L

Peptide 5: amino acid sequence at position 211 to 236 in rat VGF (ASWGEFQARVPERAPLPPSVPSQFQA; synthetic Peptide 5, VGF-related peptide, rat VGF positions 211-236)
luminescence (intracellular calcium ion increase) in spinal cord [1]: luminescence was observed
increase of intracellular calcium concentration in cardiac cells (RLU per second) [2, 14]: increase of intracellular calcium concentration
luminescence (intracellular calcium ion increase) in heart [2, 15]: luminescence was observed
luminescence (intracellular calcium ion increase) in uterus [3]: luminescence was observed
increase of intracellular calcium concentration in hypothalamic cells (RLU per second) [4, 14]: increase of intracellular calcium concentration
luminescence (intracellular calcium ion increase) in hypothalamus [4, 15]: luminescence was observed
increase of intracellular calcium concentration in kidney cells (RLU per second) ([5]; 1 μmol/L peptide, added at 25 seconds): increase of intracellular calcium concentration
luminescence (intracellular calcium ion increase) in kidney [5, 15]: luminescence was observed
increase of intracellular calcium concentration in pituitary cells (RLU per second) [6, 14]: increase of intracellular calcium concentration
luminescence (intracellular calcium ion increase) in pituitary gland [6, 15]: luminescence was observed
luminescence (intracellular calcium ion increase) in medulla oblongata [7]: luminescence was observed
luminescence (intracellular calcium ion increase) in spleen [8]: luminescence was observed

rat VGF (556-576): known peptide, positions 556-576 of the rat VGF amino acid sequence
erection inducing activity (male rats): this activity was not observed
suppression of weight gain [9]: activity of suppressing weight gain

angiotensin II (DRVYIHPF) [non-VGF peptide]
luminescence in adrenal glands [10]: strong luminescence was observed
luminescence in blood vessels [11]: strong luminescence was observed
inhibition of binding of the antiserum to labeled peptide [12]: none of these peptides showed inhibition
luminescence in uterus [13]: strong luminescence was observed
